The text below walks through data of ChEMBL document CHEMBL3137667, “[Drug-induced liver injury; fourteenth updated edition of the bibliographic database of liver injuries and related drugs]” (Gastroenterol Clin Biol, 2004).

Data set [1] can be described thus: Highest frequency of moderate liver toxicity observed during clinical trials, expressed as a percentage. [column '% BIOL' in source]. As to conditions: human.
A short description of data set [2]: Highest frequency of acute liver toxicity observed during clinical trials, expressed as a percentage. [column '% AIGUE' in source]. As to conditions: human.
Data set [3] can be described thus: Presence of at least one case with successful reintroduction. [column 'REINT' in source]. As to conditions: human.
The nature of data set [4]: Times to onset, minimal and maximal, observed in the indexed observations. [column 'DELAI' in source]. As to conditions: human.
The conditions of data set [5]: human, serum.
For data set [6] the following is noted: human, serum. This is another data set of the same source.
The conditions of data set [7]: human.
The conditions of data set [8]: human. This is another data set of the same source.
For data set [9] the following is noted: human. This is another data set of the same source.
For data set [10] the following is noted: human, serum, 4383 h.
The conditions of data set [11]: human. This is another data set of the same source.
For data set [12] the following is noted: human. The source holds these as a separate data set.
The conditions of data set [13]: human. This is another data set of the same source.
For data set [14] the following is noted: human. This is another data set of the same source.
The conditions of data set [15]: human. This is another data set of the same source.
The conditions of data set [16]: human. This is another data set of the same source.
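Wherever Hepatotoxicity (association with vascular disease) is given: count of indexed literature references reporting vascular liver injury in humans, e.g. peliosis hepatitis, hepatic veno-occlusive disease or Budd-Chiari syndrome.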
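Wherever Hepatotoxicity (benign tumour) is given: value is a count of indexed literature references citing a benign tumour confirmed by histopathology.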
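Wherever Hepatotoxicity (choleostasis) is given: human cholestatic liver injury, shown by histopathology or by peak ALT or AST elevation over alkaline phosphatase ratio below 2, value counts indexed literature reports.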
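Wherever Hepatotoxicity (chronic liver disease) is given: chronic liver injury confirmed by histopathology or persistently raised serum aminotransferase activity beyond 6 months, value given as the count of indexed literature references.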
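Wherever Hepatotoxicity (cirrhosis) is given: value is a count of indexed literature references reporting cirrhosis confirmed by histopathology.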
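Wherever Hepatotoxicity (cytolytic) is given: human cytolytic liver injury, shown by histopathology or by a ratio above 5 of peak ALT or AST elevation to alkaline phosphatase elevation, value counts indexed references.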
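Wherever Hepatotoxicity (granulomatous hepatitis) is given: value is a count of indexed literature references reporting granulomatous liver disease confirmed by histopathology.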
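Wherever Hepatotoxicity (malignant tumour) is given: malignant tumour confirmed by histopathology, value gives the count of indexed literature references reporting it.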
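Wherever Hepatotoxicity (severe hepatitis) is given: human clinical data: severe hepatitis, meaning potentially life-threatening liver failure or clinically observed cases, the value counts how many indexed literature references report it.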
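Wherever Hepatotoxicity (steatosis) is given: steatosis confirmed by histopathology, value is the count of indexed references.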

`C[C@H]1C[C@@H]2[C@H]([C@@H](O)C[C@@]3(C)[C@H]2CC[C@]3(O)C(=O)CO)[C@@]2(C)C=CC(=O)C=C12` [METHYLPREDNISOLONE]: the “Hepatotoxicity (moderate)” value in data set [1] is recorded as 0%; in [5], 0. For the same compound, the figures for the “Hepatotoxicity (acute)” value in data set [2] and in [6] were 0% and 2, respectively. In data set [3], the “Hepatotoxicity (successful reintroduction)” value is “yes”. Besides, in data set [4], the “Hepatotoxicity (time to onset)” value was found to be 40 days. In addition, in data set [7], the “Hepatotoxicity (cytolytic)” value was 2. Besides, in [8], the “Hepatotoxicity (choleostasis)” value came to 0. Besides, the “Hepatotoxicity (severe hepatitis)” value in [9] worked out at 0. Further, the “Hepatotoxicity (chronic liver disease)” value in data set [10] came out at 0. In data set [11], the “Hepatotoxicity (cirrhosis)” value is recorded as 0. Further, in data set [12], the “Hepatotoxicity (granulomatous hepatitis)” value worked out at 0. In addition, in data set [13], the “Hepatotoxicity (association with vascular disease)” value is 0. In addition, the “Hepatotoxicity (steatosis)” value in data set [14] was 2. In addition, in data set [15], the “Hepatotoxicity (malignant tumour)” value worked out at 0. Also, the “Hepatotoxicity (benign tumour)” value in [16] was determined as 0.

On to `Nc1cc(N2CCCCC2)nc(N)[n+]1[O-]` [MINOXIDIL], for which the entries for the “Hepatotoxicity (moderate)” value in data set [1] and in [5] were 4.3% and 5, respectively. The “Hepatotoxicity (acute)” value in [2] is 0%; in [6], 0. Moreover, the “Hepatotoxicity (successful reintroduction)” value in data set [3] was “yes”. Besides, in data set [4], the “Hepatotoxicity (time to onset)” value turned out to be 3 days - 1 year. Further, in data set [7], the “Hepatotoxicity (cytolytic)” value was 0. In addition, the “Hepatotoxicity (choleostasis)” value in [8] came to 0. Also, the “Hepatotoxicity (severe hepatitis)” value in [9] came out at 0. In addition, the “Hepatotoxicity (chronic liver disease)” value in data set [10] is on record as 0. Also, the “Hepatotoxicity (cirrhosis)” value in data set [11] turned out to be 0. Besides, in data set [12], the “Hepatotoxicity (granulomatous hepatitis)” value came out at 0. In addition, the “Hepatotoxicity (association with vascular disease)” value in data set [13] came to 0. Also, the “Hepatotoxicity (steatosis)” value in data set [14] is 0. Further, in [15], the “Hepatotoxicity (malignant tumour)” value was 0. In addition, in [16], the “Hepatotoxicity (benign tumour)” value is given as 0.

Turning to `CCc1c(C)[nH]c2c1C(=O)C(CN1CCOCC1)CC2` (centres undefined) [MOLINDONE], the “Hepatotoxicity (moderate)” value in data set [1] stood at 0%; in data set [5], 2. Further, the “Hepatotoxicity (acute)” value in data set [2] was 0%; in data set [6], 1. In data set [3], the “Hepatotoxicity (successful reintroduction)” value was “yes”. Further, in data set [4], the “Hepatotoxicity (time to onset)” value was determined as 1 month. The “Hepatotoxicity (cytolytic)” value in data set [7] came to 1. For the same compound, the “Hepatotoxicity (choleostasis)” value in [8] is 1. Moreover, the “Hepatotoxicity (severe hepatitis)” value in [9] amounted to 0. Besides, the “Hepatotoxicity (chronic liver disease)” value in [10] was 0. In addition, the “Hepatotoxicity (cirrhosis)” value in data set [11] is given as 0. The “Hepatotoxicity (granulomatous hepatitis)” value in data set [12] came to 0. In addition, in data set [13], the “Hepatotoxicity (association with vascular disease)” value was 0. Also, the “Hepatotoxicity (steatosis)” value in data set [14] is reported as 0. The “Hepatotoxicity (malignant tumour)” value in data set [15] worked out at 0. Moreover, the “Hepatotoxicity (benign tumour)” value in data set [16] came to 0.

For `CN(C)Cc1ccc(CSCCN/C(=C\[N+](=O)[O-])NCc2ccc3c(c2)OCO3)o1` [NIPEROTIDINE], the figures for the “Hepatotoxicity (moderate)” value in data set [1] (Liver) and in data set [5] were 0% and 0, respectively. The “Hepatotoxicity (acute)” value in [2] (Liver) turned out to be 0%; in [6] it was 2. Moreover, in data set [3], the “Hepatotoxicity (successful reintroduction)” value was “yes”. Besides, the “Hepatotoxicity (time to onset)” value in data set [4] amounted to 15 days - 7 months. Also, the “Hepatotoxicity (cytolytic)” value in [7] (Liver) is 2. Besides, the “Hepatotoxicity (choleostasis)” value in [8] (Liver) is 2. Also, the “Hepatotoxicity (severe hepatitis)” value in data set [9] (Liver) was 2. In addition, the “Hepatotoxicity (chronic liver disease)” value in data set [10] is reported as 0. For the same compound, in data set [11], the “Hepatotoxicity (cirrhosis)” value turned out to be 0. For the same compound, the “Hepatotoxicity (granulomatous hepatitis)” value in data set [12] (Liver) amounted to 0. The “Hepatotoxicity (association with vascular disease)” value in data set [13] worked out at 0. Also, the “Hepatotoxicity (steatosis)” value in data set [14] is on record as 0. The “Hepatotoxicity (malignant tumour)” value in data set [15] worked out at 0. Further, the “Hepatotoxicity (benign tumour)” value in data set [16] amounted to 0.
